In the supplement of paper PMC5908809:

What was measured:
[1] = system: normal NK cells expanded with K562-aAPC; assay: percent inhibition of viability; higher = more inhibition; conditions: 72 h, IL-2 2.5 ng/mL
Procedure: (§1)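 Drug sensitivity and resistance testing on K562-aAPC-expanded normal NK cells: 5 concentrations (10-fold steps over a 10,000-fold range), 72 h at 37 °C, viability by CellTiter-Glo normalised to DMSO and benzethonium chloride controls; DSS from the fitted curve.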

DERL-7 (IL-2 2.5 ng/mL) [2] = assay: as above; conditions: 72 h
IMC-1 (IL-2 20 ng/mL) [3] = assay: as above; conditions: 72 h
KAI3 (IL-2 2.5 ng/mL) [4] = assay: as above; conditions: 72 h
KHYG-1 (IL-2 2.5 ng/mL) [5] = assay: as above; conditions: 72 h
NK-92 (IL-2 2.5 ng/mL) [6] = assay: as above; conditions: 72 h
NK-YS (IL-2 2.5 ng/mL) [7] = assay: as above; conditions: 72 h
NKL (IL-2 2.5 ng/mL) [8] = assay: as above; conditions: 72 h
SNK-6 (IL-2 2.5 ng/mL) [9] = assay: as above; conditions: 72 h
YT (IL-2 2.5 ng/mL) [10] = assay: as above; conditions: 72 h
[11] = system: normal primary NK cells, pool 1 (3 donors) (IL-2 2.5 ng/mL); assay: as above; conditions: 72 h
[12] = system: normal primary NK cells, pool 1 (3 donors), resting (IL-2 0 ng/mL); assay: as above; conditions: 72 h
[13] = system: normal primary NK cells, pool 2 (3 donors) (IL-2 2.5 ng/mL); assay: as above; conditions: 72 h
[14] = system: normal primary NK cells, pool 3 (3 donors) (IL-2 2.5 ng/mL); assay: as above; conditions: 72 h
[15] = system: normal NK cells expanded with K562-aAPC; assay: drug sensitivity score (DSS) (DSS units); higher = more sensitive; extreme values may be limits of the assay; conditions: 72 h; IL-2 2.5 ng/mL
Procedure: as §1

DERL-7 (IL-2 2.5 ng/mL) [16] = assay: as above; conditions: 72 h
IMC-1 (IL-2 20 ng/mL) [17] = assay: as above; conditions: 72 h
KAI3 (IL-2 2.5 ng/mL) [18] = assay: as above; conditions: 72 h
KHYG-1 (IL-2 2.5 ng/mL) [19] = assay: as above; conditions: 72 h
NK-92 (IL-2 2.5 ng/mL) [20] = assay: as above; conditions: 72 h
NK-YS (IL-2 2.5 ng/mL) [21] = assay: as above; conditions: 72 h
NKL (IL-2 2.5 ng/mL) [22] = assay: as above; conditions: 72 h
SNK-6 (IL-2 2.5 ng/mL) [23] = assay: as above; conditions: 72 h
YT (IL-2 2.5 ng/mL) [24] = assay: as above; conditions: 72 h
[25] = system: normal primary NK cells, pool 1 (3 donors) (IL-2 2.5 ng/mL); assay: as above; conditions: 72 h
[26] = system: normal primary NK cells, pool 1 (3 donors), resting (IL-2 0 ng/mL); assay: as above; conditions: 72 h
[27] = system: normal primary NK cells, pool 2 (3 donors) (IL-2 2.5 ng/mL); assay: as above; conditions: 72 h
[28] = system: normal primary NK cells, pool 3 (3 donors) (IL-2 2.5 ng/mL); assay: as above; conditions: 72 h

CCNC(=O)Nc1ccc(-c2nc3c(c(N4CCOC[C@@H]4C)n2)CCN(C2COC2)C3)cc1 [RG-7603] (max concentration tested 2500 nM)
percent inhibition of viability [%]
Conditions	0.25 nM	2.5 nM	25 nM	250 nM	2500 nM
DERL-7 (IL-2 2.5 ng/mL) [2]	-2.9	5.17	4.85	41.4	63.4
IMC-1 (IL-2 20 ng/mL) [3]	-2.39	-0.65	-9.05	-18.6	-57.2
KAI3 (IL-2 2.5 ng/mL) [4]	-2.16	10.2	4.9	24.3	45.1
KHYG-1 (IL-2 2.5 ng/mL) [5]	-4.71	-3.78	-6.03	6.5	24.9
NK-92 (IL-2 2.5 ng/mL) [6]	-10.2	-10.6	-15.4	17.8	33.1
NK-YS (IL-2 2.5 ng/mL) [7]	-8.96	-4.62	-4.67	17.1	44.4
NKL (IL-2 2.5 ng/mL) [8]	-16.4	-9.21	1.54	34.9	54.6
SNK-6 (IL-2 2.5 ng/mL) [9]	15	2.98	-2.03	14.2	42.2
YT (IL-2 2.5 ng/mL) [10]	-0.19	-2.47	-0.44	8.66	37
[1]	-3.77	-6.71	-1.18	12.9	25.9
[11]	-9.72	-0.76	9.2	14.6	21
[12]	-10.2	-9.16	15.7	0.22	16
[13]	-4.33	-4.69	-7.06	3.67	13.1
[14]	-5.74	-6.13	-4.3	-0.62	10.1

Conditions	drug sensitivity score
DERL-7 (IL-2 2.5 ng/mL) [16]	8.64
IMC-1 (IL-2 20 ng/mL) [17]	0.89
KAI3 (IL-2 2.5 ng/mL) [18]	5.07
KHYG-1 (IL-2 2.5 ng/mL) [19]	1.86
NK-92 (IL-2 2.5 ng/mL) [20]	3.67
NK-YS (IL-2 2.5 ng/mL) [21]	4.64
NKL (IL-2 2.5 ng/mL) [22]	7.13
SNK-6 (IL-2 2.5 ng/mL) [23]	4.17
YT (IL-2 2.5 ng/mL) [24]	3.15
[15]	2.54
[25]	2.37
[26]	0.19
[27]	0.33
[28]	0
